{"source": "patent US20230390324A1", "about": "“TREATMENT OF FATTY LIVER DISEASES” (TX MEDIC AB, priority 2020, published 2023)", "key": {"[1]": {"test": "Serum total bilirubin in patients before and after dextran sulfate administration", "assay_type": "in vivo", "conditions": "human patients with a neurological disease, 2 mg/kg subcutaneous once a week for ten weeks, week 10 vs week 0, p<0.05, FIG. 1", "experimental": "Dextran sulfate (Tikomed A B, Viken, Sweden, WO 2016/076780) was administered at 2 mg/kg by […] subcutaneous injection once a week for ten weeks to human patients suffering from a neurological disease.\nPeripheral venous blood samples were collected from patients before (week 0) and after dextran sulfate administration (week 5 and week 10) after at least 15 minutes of complete rest, using the standard tourniquet procedure, from the antecubital vein into a single VACUETTE® polypropylene tube containing serum separator and clot activator (Greiner-Bio One GmbH, Kremsmunster, Austria). After 30 mins at room temperature (20-25° C.), blood withdrawals were centrifuged at 1,890×g for 10 min to get serum aliquots.\nA serum aliquot of about 300 μl was light-protected and then processed to extract fat-soluble metabolites using a method described in detail (Lazzarino et al., Single-step preparation of selected biological fluids for the high performance liquid chromatographic analysis of fat-soluble vitamins and antioxidants, J Chromatogr A. 2017; 1527: 43-52). Briefly, samples were supplemented with 1 ml of HPLC-grade acetonitrile, vigorously vortexed for 60 sec and incubated at 37° C. for 1 h in a water bath under agitation to allow the full extraction of lipid soluble compounds. […]"}, "[2]": {"test_system": "Human Schwann cells (ATCC CRL-2884™)", "test": "Gene expression study in cultured human Schwann cells (microarray, IPA network analysis)", "assay_type": "cell-based", "conditions": "0.01 mg/ml, 48 hours", "experimental": "Human Schwann cells (ATCC CRL-2884™) were cultured in 25 cm^2 culture flasks coated with poly-d-lysine and laminin) in high-glucose DMEM with 10% fetal bovine serum (FBS) (n=8) and incubated at 37° C./5% CO2. Twenty-four house after seeding (Day 0) cells were treated once with either dextran sulfate (0.01 mg/ml in DMEM) or culture media. After 48 hours with treatment, the media were removed and cells were harvested in 2.5 ml Trizol:Water (4:1) solution containing 0.5 ml of chloroform at room temperature (RT). The flasks were inspected under the microscope to ensure full removal of cells. The collected lysates were stored at −80° C.\nLysates were left to equilibrate for 5 minutes at room temperature to permit the complete dissociation of nucleoprotein complexes. 1 ml lysate was removed from each sample and 200 μL of chloroform was added to each and the tube was shaken vigorously. Samples were stored at room temperature for 2-3 minutes and subsequently centrifuged at 12,000×g/15 min at 4° C. The mixture separated into 3 layers: a lower red phenol-chloroform phase, an interphase and a colorless upper aqueous phase. The top % of the aqueous phase (containing the RNA) was transferred to a new clean Eppendorf tube. The RNA was precipitated from the aqueous phase by adding an equal amount of 100% ethanol. The precipitated RNA was fixed onto a Spin Cartridge, washed twice and dried. The RNA was eluted in 50 μL warm RNase-Free Water. The amount and quality of the purified RNA was measured by Nanodrop. The RNA was stored at −80° C. before transfer to Source Bioscience for Gene Array analysis.\nThe background corrected expression data from each sample were downloaded into a separate file. The background corrected signal was log2 transformed for all samples for statistical analysis. To reduce the false discovery rate in the samples, the signals that were below ‘expression level’ were removed. The ‘below expression’ level was set at 5 for the log2 transformed expression values. (The expression value of the MAPT gene, which is not normally expressed in Schwann cells, was <5. However, the expression of usual ‘control’ gene ACTB (A_32_P137939; ACTB) was comfortably above 5).\nMetaboAnalyst (Chong and Xia, MetaboAnalystR: an R package for flexible and reproducible analysis of metabolomics data, Bioinformatics 34(24): 4313-4314 (2018)) was used to analyze the gene expression profiles. […]\nAdditionally, a preliminary analysis was carried out to screen out genes that were not differentially expressed between any combinations of the three datasets. […] The remaining probe sets were analyzed for fold change and significance using Volcano plots (Qlucore, Lund, Sweden). […]"}, "[3]": {"test_system": "12 BioMAP® Diversity Plus human cell systems", "test": "BioMAP Diversity PLUS phenotypic profiling in 12 primary human cell and co-culture systems", "assay_type": "cell-based", "experimental": "Twelve primary human cell and co-cultures assays were used to assess the effects of dextran sulfate on clinically-relevant protein biomarkers of inflammation, cell growth and fibrosis as part of the quality controlled BioMAP® Diversity PLUS, commercially available service (Eurofins DiscoverX Corporation, Freemont, CA, USA; for full details https://www.discoverx.com). Dextran sulfate was tested in these assays at four concentrations: 4000 nMw 1300 nMw 400 nM and 150 nM. Human primary cells employed in the BioMAP® systems were used at passage 4 or earlier, derived from multiple donors (n=2 to 6), commercially purchased and handled according to the recommendations of the manufacturers. Human blood derived CD14+ monocytes were differentiated into macrophages in vitro before being added to the IMphg system (Eurofins DiscoverX Corporation).\nThe cell types and stimuli used in each assay system were as follows: 3C system [Human umbilical vein endothelial cells (HUVEC)+(IL-1β, TNFα and IFNγ)], 4H system [HUVEC+(IL-4 and histamine)], LPS system [Peripheral blood mononuclear cells (PBMC) and HUVEC+LPS (TLR4 ligand)], SAg system [PBMC and HUVEC+TCR ligands], BT system [CD19+ B cells and PBMC+(α-IgM and TCR ligands)], BF4T system [bronchial epithelial cells (BEC) and human neonatal dermal fibroblasts (HDFn)+(TNFα and IL-4)], BE3C system [BEC+(IL-1β, TNFα and IFNγ)], CASM3C system [coronary artery smooth muscle cells (CASMC)+(IL-1β, TNFα and IFNγ)], HDF3CGF system [HDFn+(IL-1β, TNFα, IFNγ, EGF, bFGF and PDGF-BB)], KF3CT system [keratinocytes and HDFn+(IL-1β, TNFα, IFNγ and TGFβ)], MyoF system [differentiated lung myofibroblasts+(TNFα and TGFβ)] and IMphg system [HUVEC and M1 macrophages+Zymosan (TLR2 ligand)].\nAssays were derived from either single cell types or co-culture systems. Adherent cell types were cultured in 96 or 384-well plates until confluence, followed by the addition of PBMC (SAg and LPS systems). […] Test agents prepared in either DMSO (small molecules; final concentration 0.1%) or PBS (biologics) were added at the indicated concentrations 1 h before stimulation, and cells remained in culture for 24 h or as otherwise indicated (48 h, MyoF system; 72 h, BT system (soluble readouts); 168 h, BT system (secreted IgG)). […] Soluble factors from supernatants were quantified using either HTRF® detection, bead-based multiplex immunoassay or capture ELISA. Overt adverse effects of dextran sulfate on cell proliferation and viability (cytotoxicity) were detected by sulforhodamine B (SRB) staining for adherent cells, and alamarBlue® reduction for cells in suspension. For proliferation assays, individual cell types were cultured at subconfluence and measured at time points optimized for each system (48 h: 3C and CASM3C systems; 72 h: BT and HDF3CGF systems; 96 h: SAg system). Cytotoxicity for adherent cells was measured by SRB (24 h: 3C, 4H, LPS, SAg, BF4T, BE3C, CASM3C, HDF3CGF, KF3CT, and IMphg systems; 48 h: MyoF system), and by alamarBlue® staining for cells in suspension (24 h: SAg system; 42 h: BT system) at the time points indicated.\nBiomarker measurements in dextran sulfate-treated samples were divided by the average of the control samples (at least 6 vehicle controls from the same plate) to generate a ratio that was then log10 transformed. Significance prediction envelopes were calculated using historical vehicle control data at a 95% confidence interval. […]"}, "[4]": {"conditions": "protein level, BioMAP Diversity Plus"}}, "data": [{"substance": "Dextran sulfate", "values": [{"measurement": "circulating levels of total bilirubin (free bilirubin + conjugated bilirubin)", "setting": "[1]", "result": "significant time-dependent decrease"}, {"measurement": "effect on inflammatory genes (molecular network analysis)", "setting": "[2]; FIG. 5B", "result": "resolution of the normal inflammatory response"}, {"measurement": "expression of the anti-fibrotic proteoglycan decorin", "setting": "[2]; TGFβ-regulated gene network", "result": "upregulating"}, {"measurement": "share of molecules of the TGFβ-regulated fibrosis network whose expression was regulated", "setting": "[2]; 14 of 165 molecules, p<0.001", "result": 8.5, "unit": "%"}, {"measurement": "number of molecules of the TGFβ-regulated mechanistic network responsible for fibrosis whose expression was regulated", "setting": "[2]; of 165 molecules, p<0.001", "result": 14}, {"measurement": "overall analysis of the responses of the 12 model systems", "setting": "[3]; 150-4000 nM, FIG. 3", "result": "modulated inflammatory and immunoregulatory cytokines and molecules, tissue remodeling pathways (including activation of matrix degrading enzymes) and hemostasis activity"}, {"measurement": "cytotoxicity (SRB staining / alamarBlue reduction)", "setting": "[3]; all human culture systems evaluated, 150, 400, 1300 and 4000 nM", "result": "no cytotoxicity evident"}, {"measurement": "CXCL9 levels", "setting": "[3]; [4]", "result": "reduced levels"}, {"measurement": "CXCL10 levels", "setting": "[3]; [4]", "result": "reduced levels"}, {"measurement": "CXCL11 levels", "setting": "[3]; [4]", "result": "reduced levels"}]}]}
